Entries after “also recorded” stand apart in the source; their conditions may differ. No end group written: not given here.
Key:
[1] = tested on: M2-polarized bone marrow-derived macrophages (BMDM); type: cell-based, murine (C57BL/6 mice); details: 48 h
Procedure: (§1) BMDM cells were isolated as described previously. Briefly, murine monocyte precursor cells were obtained by flushing out the bone marrow from the femur bones of 6–8-week-old healthy C57BL/6 mice. These precursor cells were then differentiated into M1 macrophages using 20 ng/mL of M-CSF and 20 ng/mL of IFN-γ and into M2 macrophages using 20 ng/mL of M-CSF and 20 ng/mL of IL-4 [29]. Human fetal lung fibroblast cell lines MRC5, IMR90, and IMR9 were purchased from the American Type Culture Collection (ATCC, Manassas, VA, USA) and were cultured according to ATCC protocols.
(§2) Cell viability dose-response curves were determined using the Live/Dead Viability/Cytotoxicity Kit (Thermo Fisher Scientific, Waltham, MA, USA, Cat# L3224) using the manufacturer’s protocol. Macrophages were seeded onto glass-bottom 96-well plates and polarized into M1 or M2 populations. Cells were treated with different concentrations of RP-832c for 48 h. After drug treatment, a 100 μL mixture of 2 μM calcein-AM and 4 μM ethidium homodimer was added and incubated for 1 h. The images were taken and analyzed as described in the immunofluorescence assay section below. A total of 200 cells were counted manually from three different random 20× regions across three technical replicates, and the percentage of alive cells was calculated using GraphPad Prism version 8.0. […]

[2] = tested on: M1-polarized bone marrow-derived macrophages (BMDM); experiment: Live/Dead cell viability assay, M1 macrophages; type: cell-based, murine (C57BL/6 mice); details: 48 h, 0–100 μM
Procedure: as §1, §2

[3] = tested on: MRC5 human fetal lung fibroblast cell line; experiment: Cytotoxicity in lung fibroblasts MRC5; type: cell-based
Procedure: (§3) The RP-832c (RWKFGGFKWR) peptide was synthesized by PolyPeptide Laboratories, San Diego, CA, USA. BMDM cells were isolated and polarized as described previously. The cell viability of RP-832c-treated macrophages was determined using the live/dead viability assay as previously described. Human fetal lung fibroblast cell lines MRC5, IMR90, and IMR9 were purchased from the American Type Culture Collection (ATCC, Manassas, VA, USA) and were cultured according to ATCC protocols.
as §1, with “Human fetal lung fibroblast cell lines MRC5, IMR90, and IMR9 were purchased from the American Type Culture Collection (ATCC, Manassas, VA, USA) and were cultured according to ATCC protocols.” left out
(§4) Cell viability dose-response curves were determined using the Live/Dead Viability/Cytotoxicity Kit (Thermo Fisher Scientific, Waltham, MA, USA, Cat# L3224) using the manufacturer’s protocol. […] The images were taken and analyzed as described in the immunofluorescence assay section below. A total of 200 cells were counted manually from three different random 20× regions across three technical replicates, and the percentage of alive cells was calculated using GraphPad Prism version 8.0. […]

[4] = tested on: IMR9 human fetal lung fibroblast cell line; experiment: Cytotoxicity in lung fibroblasts IMR9 / IMR91; type: cell-based; details: 1μM - 100μM; three independent experiments in triplicate
Procedure: as §3
as §1, with “Human fetal lung fibroblast cell lines MRC5, IMR90, and IMR9 were purchased from the American Type Culture Collection (ATCC, Manassas, VA, USA) and were cultured according to ATCC protocols.” left out
as §4

[5] = matrix and method not stated; no reference given; cited from earlier work
Excerpt: It is evident from various studies that macrophages are indispensable in tissue repair and subsequent fibrotic changes. […] M1 macrophages initiate host defense responses against pathogens by generating reactive nitric oxide (NO) via inducible nitric oxide synthase (iNOS), and by releasing proinflammatory cytokines and chemokines such as IL-1β, IL-12, IL-23, CCL2, and TNF-α. Meanwhile, M2 macrophages contribute to the pathogenesis of fibrosis ...

[6] = Toxicity study: body and organ weights, blood count, blood chemistry
CD206 in lung tissue = experiment: IHC staining of CD206 in lungs of BLM-treated mice; type: in vivo, mouse; details: n=3 mice; vs naïve
Procedure: At the end of the study, the mice were sacrificed using CO2 followed by cervical dislocation (according to IACUC guidelines), and the lungs were collected and fixed in 10% formalin. After 48 h of fixation, the lungs were processed into tissue sections. The tissue sections were stained with both Hematoxylin/Eosin (H&E) (Sigma Aldrich, Burlington, MA, USA) and Masson Trichrome (Abcam, Waltham, MA, USA). Immunostaining was performed with the anti-CD206 (AF2535, 5 ug/mL, R&D Biosciences), TGF-β1 (MAB1835, 10 ug/mL, R&D Biosciences), and α-SMA (MAB1420, 10 ug/mL, R&D Biosciences, Minneapolis, MN, USA) antibodies as previously described. All slides were scanned using a Leica Aperio SC2 scanner and blindly evaluated by two independent pathologists. A total of 10 representative fields of 20× IHC images per tissue section were individually analyzed for the total number of cells/area using a confocal microscope (Olympus, New York, NY, USA). All quantitative data were normalized to appropriate control images.
We first sought to perform in silico validation of CD206 expression at various time points in both bleomycin-treated rat (GSE48455) and mouse models (GSE40151). […] Thus, the BLM model appears to be an appropriate model to determine the role of CD206 in lung fibrosis. […]
by different concentrations (0μM - 100μM) of RP-832c. […]

[7] = target: T1, CD206 (macrophage mannose receptor) (UniProt P22897); experiment: SPR
T1 chain: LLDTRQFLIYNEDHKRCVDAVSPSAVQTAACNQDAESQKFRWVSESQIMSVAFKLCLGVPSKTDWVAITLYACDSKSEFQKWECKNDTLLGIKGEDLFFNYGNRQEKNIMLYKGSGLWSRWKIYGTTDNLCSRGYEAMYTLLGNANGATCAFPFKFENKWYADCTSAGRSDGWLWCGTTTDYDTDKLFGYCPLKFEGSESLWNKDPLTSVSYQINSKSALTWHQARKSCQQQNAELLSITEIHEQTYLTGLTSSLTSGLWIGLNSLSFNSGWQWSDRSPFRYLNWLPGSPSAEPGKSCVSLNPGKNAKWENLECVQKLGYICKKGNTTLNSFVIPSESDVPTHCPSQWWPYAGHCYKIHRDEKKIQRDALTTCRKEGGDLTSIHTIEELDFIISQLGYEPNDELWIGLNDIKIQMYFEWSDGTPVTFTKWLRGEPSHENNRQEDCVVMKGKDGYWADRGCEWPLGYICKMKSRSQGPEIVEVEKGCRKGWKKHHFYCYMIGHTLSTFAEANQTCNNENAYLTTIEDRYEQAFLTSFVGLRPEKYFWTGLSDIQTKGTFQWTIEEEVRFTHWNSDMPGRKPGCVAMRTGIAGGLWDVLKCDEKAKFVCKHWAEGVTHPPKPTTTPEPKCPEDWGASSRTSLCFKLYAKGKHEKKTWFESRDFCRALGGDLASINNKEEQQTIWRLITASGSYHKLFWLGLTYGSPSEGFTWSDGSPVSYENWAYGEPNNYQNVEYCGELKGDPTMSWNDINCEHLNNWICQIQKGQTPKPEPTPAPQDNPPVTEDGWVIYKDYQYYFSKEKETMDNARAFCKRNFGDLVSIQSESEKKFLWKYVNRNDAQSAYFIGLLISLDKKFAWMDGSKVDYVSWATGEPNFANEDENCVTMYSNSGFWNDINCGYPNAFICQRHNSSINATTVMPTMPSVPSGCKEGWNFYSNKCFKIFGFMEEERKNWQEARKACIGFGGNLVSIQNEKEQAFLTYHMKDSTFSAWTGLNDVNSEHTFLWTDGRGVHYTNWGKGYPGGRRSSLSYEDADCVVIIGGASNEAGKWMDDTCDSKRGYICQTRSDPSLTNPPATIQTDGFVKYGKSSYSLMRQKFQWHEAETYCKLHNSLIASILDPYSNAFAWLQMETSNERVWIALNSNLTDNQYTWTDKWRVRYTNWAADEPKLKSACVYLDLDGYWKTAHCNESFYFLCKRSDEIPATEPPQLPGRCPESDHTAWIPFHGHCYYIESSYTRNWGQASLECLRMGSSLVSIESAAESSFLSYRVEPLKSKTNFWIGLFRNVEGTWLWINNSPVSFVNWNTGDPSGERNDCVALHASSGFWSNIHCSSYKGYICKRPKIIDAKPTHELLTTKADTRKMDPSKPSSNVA

RWKFGGFKWR [RP-832c]
IC50 [1]: ~6 µM | cytotoxicity in M1 macrophages [2]: only minimal cytotoxicity | cytotoxicity against MRC5 fibroblasts ([3]; 1μM - 100μM, three independent experiments in triplicate): did not show cytotoxicity; also recorded: lacking any cytotoxicity | proliferation of fibroblast cell lines ([3]; multiple fibroblast cell lines cultured in vitro): did not observe any significant effect on the proliferation of multiple fibroblast cell lines; also recorded: did not observe direct inhibitory effects on the fibroblast cell lines | cytotoxicity against IMR9 (IMR91) fibroblasts [4]: did not show cytotoxicity; also recorded: lacking any cytotoxicity | half-life compared to RP-182 [5]: increased half-life compared to RP-182 | stability compared to RP-182 [5]: enhanced stability | AST, Mean Difference ([6]; 50 mg/kg vs saline, p 0.1237): −48.8 | Phosphorus, Mean Difference ([6]; 50 mg/kg vs saline, p 0.2623): -1.1 mg/dL | BUN, Mean Difference ([6]; 50 mg/kg vs saline, p 0.3087): 1.6 mg/dL | Albumin, Mean Difference ([6]; 50 mg/kg vs saline, p 0.3982): 0.2 g/dL | Globulin, Mean Difference ([6]; 50 mg/kg vs saline, p 0.4413): 0.1 g/dL | Total Protein, Mean Difference ([6]; 50 mg/kg vs saline, p 0.5797): 0.3 g/dL | Creatinine, Mean Difference ([6]; 50 mg/kg vs saline, p not given): 0.0 mg/dL | body weight ([6]; 50mg/kg, CD1 mice, vs vehicle): did not have any significant effect on body weight | Creatinine ([6]; 50 mg/kg, n = 10, saline n = 5: 0.2 ± 0): 0.2 ± 0 mg/dL | Globulin ([6]; 50 mg/kg, n = 10, saline n = 5: 2.6 ± 0.5): 2.7 ± 0.2 g/dL | Albumin ([6]; 50 mg/kg, n = 10, saline n = 5: 2.9 ± 0.3): 3.1 ± 0.3 g/dL | Total Protein ([6]; 50 mg/kg, n = 10, saline n = 5: 5.6 ± 0.8): 5.9 ± 0.5 g/dL | Phosphorus ([6]; 50 mg/kg, n = 10, saline n = 5: 8.8 ± 2.4): 7.7 ± 0.5 mg/dL | BUN ([6]; 50 mg/kg, n = 10, saline n = 5: 22.4 ± 3.4): 24.0 ± 4.3 mg/dL | ALT ([6]; 50 mg/kg, n = 10, saline n = 5: 35.8 ± 18.9): 27.2 ± 10 U/L | AST ([6]; 50 mg/kg, n = 10, saline n = 5: 140.0 ± 75.5): 91.2 ± 21.7 U/L | body weight, organ weights, complete blood count and blood chemistry ([6]; 50 mg/kg, vs vehicle): no apparent toxicities observed; also recorded: No significant differences were observed | complete blood cell count ([6]; 50 mg/kg, vs vehicle): does not significantly affect the complete blood cell count | organ weights ([6]; 50 mg/kg, vs vehicle): lacks any significant

bleomycin
CD206 expression in lungs of BLM-treated mice (IHC) (CD206 in lung tissue): upregulated

RWKFGGFKWR [RP-832c]
Kd [7]: ~3.5 µM

— publication PMC10177262, “A Novel CD206 Targeting Peptide Inhibits Bleomycin-Induced Pulmonary Fibrosis in Mice” (Cells, 2023)
